Results reported in article PMC6422238, “Absence of a human ortholog of rodent Kupffer cell galactose-binding receptor encoded by the CLEC4f gene” (Glycobiology, 2019).

Columns and labels:
[1] = target: T1, Bovine CLEC4f protein (Bos taurus, UniProt A0AAA9RVQ7); assay: affinity chromatography on galactose-Sepharose; type: binding; conditions: immobilised galactose (divinyl sulfone coupling); 25 mM CaCl2, 150 mM NaCl, pH 7.8; Ca2+-dependent, eluted with EDTA
T1 construct: C-terminal fragment of the extracellular domain (neck + CRD), E. coli BL21(DE3) inclusion bodies, renatured; 35 kDa calculated; trimer; borders only in supplement
T1 sequence (A0AAA9RVQ7 274-591 limits assumed): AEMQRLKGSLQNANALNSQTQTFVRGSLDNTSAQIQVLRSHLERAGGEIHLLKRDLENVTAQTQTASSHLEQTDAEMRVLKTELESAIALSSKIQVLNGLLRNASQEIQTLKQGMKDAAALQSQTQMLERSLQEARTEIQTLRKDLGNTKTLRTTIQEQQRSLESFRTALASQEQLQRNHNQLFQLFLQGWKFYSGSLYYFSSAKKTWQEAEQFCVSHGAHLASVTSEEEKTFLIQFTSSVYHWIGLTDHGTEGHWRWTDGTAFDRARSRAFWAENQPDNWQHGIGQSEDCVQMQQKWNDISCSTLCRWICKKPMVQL

[2] = target: T2, Murine CLEC4f protein; murine Kupffer cell receptor (Mus musculus, UniProt P70194); assay: affinity re-purification of the labelled protein on galactose-Sepharose; type: binding; conditions: immobilised galactose; 25 mM CaCl2, 150 mM NaCl, pH 7.8; eluted with EDTA; fluorescein-labelled protein
T2 construct: fluorescein isothiocyanate labelled
T2 sequence (P70194 70-548 limits assumed): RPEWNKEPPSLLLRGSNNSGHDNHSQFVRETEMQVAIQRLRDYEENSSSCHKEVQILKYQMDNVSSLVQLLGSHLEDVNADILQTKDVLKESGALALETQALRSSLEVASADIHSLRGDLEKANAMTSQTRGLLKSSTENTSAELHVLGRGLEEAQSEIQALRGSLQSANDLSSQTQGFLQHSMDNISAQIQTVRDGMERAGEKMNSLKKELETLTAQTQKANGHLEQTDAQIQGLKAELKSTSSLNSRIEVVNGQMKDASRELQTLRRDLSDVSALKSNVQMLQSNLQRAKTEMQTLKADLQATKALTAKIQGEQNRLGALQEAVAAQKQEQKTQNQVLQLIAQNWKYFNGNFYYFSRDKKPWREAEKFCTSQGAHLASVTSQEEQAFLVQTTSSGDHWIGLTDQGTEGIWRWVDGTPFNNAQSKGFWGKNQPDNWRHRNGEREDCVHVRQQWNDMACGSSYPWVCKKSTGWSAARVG

In the case of `OC[C@H]1OC(O)[C@H](O)[C@@H](O)[C@H]1O` (some centres unmarked) [galactose], the “affinity chromatography on galactose-Sepharose” value [1] is reported as “confirming that it has galactose-binding activity” and the “affinity re-purification of the labelled protein on galactose-Sepharose” value [2] is reported as “the chimpanzee, bovine and murine proteins all bind to galactose”.
